Test results taken from US12115152B2, “Pan-RAF kinase inhibitor and use thereof” (HEFEI INSTITUTES OF PHYSICAL SCIENCE, CHINESE ACADEMY OF …, priority 2019, dated 2024).
Several values for one entry are separate records, joined by “and”; a condition that tells them apart may be missing. Equal entries are not always repeated. Where two headings read alike, the source gives them in different places.

Experiment: Pharmacokinetic parameters in rats
Assay type: in vivo, SD rats
Settings: rat
Method: In the example, SD rats (180-220 g, male) (purchased from Experimental Animal Center of Anhui Medical University, China) were used. The animals were kept in cages ventilated independently with 6 rats per cage. The feeding was performed at a temperature of 20˜26° C. and a humidity of 35-75%. The light condition was 12 hours of lighting/12 hours of darkness. The corncob bedding was refreshed once a week. The rats were fed with foods and drinking water on an ad libitum basis. The rats were marked with a number on the tails. During the experiment, the breeding and use of animals strictly follow the regulations of Association for Assessment and Accreditation of Laboratory Animal Care International.
Solutions of Compound 16 and Comparative Compound 1 were prepared as follows. 10 mg of the compound to be tested was precisely weighed into a sterile vial, and was dissolved with a small amount of DMSO, and then was made to a constant volume of 5 ml with 5% glucose solution, to give a gavage test solution at a concentration of 2 mg/mL. 0.5 ml of the above gavage test solution at a concentration of 2 mg/mL was precisely taken, and was made to constant volume of 5 ml with 4.5 ml of 5% glucose solution, to give an intravenous injection test solution at a concentration of 0.2 mg/mL. The solution was prepared immediately before being used in the experiment.
6 SD rats were randomly divided into two groups, and the synthesized compounds were administered by gavage and tail vein injection, respectively. About 0.3 mL of blood samples were collected from the retro-orbital venous plexus at 0 h before administration and at 5 min, 15 min, 30 min, 1 h, 1.5 h, 2 h, 4 h, 6 h, 9 h, 12 h, 24 h after administration for the gavage group; and at 0 h before administration and at 2 min, 5 min, 15 min, 30 min, 1 h, 2 h, 4 h, 6 h, 9 h, and 12 h after administration for the tail vein group. Each of the collected blood samples was put in a 1.5 mL centrifuge tube with heparin (Sigma, USA). The sample was centrifuged at 6000 rpm for 3 min to separate the plasma. 100 μL of plasma in the upper layer was placed into a new 1.5 mL centrifuge tube, and stored at −80° C. for determination. 10 mg of a standard for the compound to be tested was precisely weighed into a 10 mL volumetric flask, and was dissolved by adding methanol to make a constant volume and mixed uniformly, to give a 1 mg/mL stock solution. The stock solution was then diluted gradually with methanol to give a series of working solutions at concentrations of 0.01, 0.02, 0.05, 0.1, 0.2, 0.5, 1, 2, 5, 10, 20 μg/mL. The working solutions were placed in a refrigerator at 4° C. for later use. 11 centrifuge tubes were used. 10 μL of the above working solutions was respectively added to each of the centrifuge tubes, and then 90 μL of blank rat plasma was respectively added therein. The mixtures were mixed uniformly, so that the concentration of the compound in the rat plasma was 1, 2, 5, 10, 20, 50, 100, 200, 500, 1000, 2000 ng/mL. Then, 20 μL of a solution of caffeine as the internal standard (200 ng/mL) (National Institutes for Food and Drug Control, China) was added therein, and the resultant mixtures were vortexed for 10 s. Next, 400 μL of methanol was added. The resultant mixtures were vortexed for 10 min, and centrifuged at 16000 rpm for 5 min. Thereafter, 70 μL of the supernatant was placed into the inserted pipe of a sampling bottle. 5 μL of the sample was introduced for a LC-MS/MS analysis. A standard curve of the compound in the rat plasma was obtained by means of a linear regression performed by taking the ratio of the peak area of the sample to that of the internal standard As/Ais as the vertical ordinate, taking the concentration C (μg/mL) as the horizontal ordinate, and taking 1/C^2 was taken as a weighting coefficient.
To 100 μL of the rat plasma to be tested stored at −80° C., 20 μL of a caffeine solution (200 ng/mL) as the internal standard was added. The resultant mixture was vortexed for 10 s. […]

[1] = male, Sprague-Dawley, plasma, iv, 1 mg/kg, intravenous injection 1 mg/kg, average n=3
[2] = male, Sprague-Dawley, plasma, iv, 1 mg/kg, intravenous injection 1 mg/kg, individual rats #1-#3
[3] = intravenous injection 1 mg/kg, average n=3
[4] = intravenous injection 1 mg/kg, individual rats #1-#3, 1 mg/kg
[5] = oral administration (gavage) 10 mg/kg, average n=3
[6] = oral administration (gavage) 10 mg/kg, individual rats #1-#3, 10 mg/kg

SMILES: Cc1ccc(NC(=O)c2cccc(C(F)(F)F)c2)cc1-n1cc(-c2cncc(N3CCOCC3)c2)cn1 [Example 16, N-(4-methyl-3-(4-(5-morpholinopyrid-3-yl)-1H-pyrazol-1-yl)phenyl)-3-(trifluoromethyl)benzamide]
- AUC(0-inf) (male, SD, plasma, po, 10 mg/kg, oral administration (gavage) 10 mg/kg, average n=3): 11000 ng·h/mL
- Tmax (male, SD, plasma, po, 10 mg/kg, oral administration (gavage) 10 mg/kg, average n=3, read-out: Tmax): 0.67 h
- half-life (male, SD, plasma, po, 10 mg/kg, oral administration (gavage) 10 mg/kg, average n=3, read-out: T½ (converted)): 3.02 h
- AUC(0-inf) (male, SD, plasma, po, 10 mg/kg, oral administration (gavage) 10 mg/kg, individual rats #1-#3): 13500 ng·h/mL
- AUC0-t (male, SD, plasma, po, 10 mg/kg, oral administration (gavage) 10 mg/kg, individual rats #1-#3, read-out: AUC0-t): 13400 ng·h/mL
- Tmax (male, SD, plasma, po, 10 mg/kg, oral administration (gavage) 10 mg/kg, individual rats #1-#3, read-out: Tmax): 0.5 h
- half-life (male, SD, plasma, po, 10 mg/kg, oral administration (gavage) 10 mg/kg, individual rats #1-#3, read-out: T½ (converted)): 3.19 h
- AUC(0-inf) [1]: 765 ng·h/mL
- clearance [1]: 21.9 mL/min/kg
- AUC0-t (male, Sprague-Dawley, plasma, iv, 1 mg/kg, intravenous injection 1 mg/kg, average n=3, read-out: AUC0-t): 742 ng·h/mL
- C0 (male, Sprague-Dawley, plasma, iv, 1 mg/kg, intravenous injection 1 mg/kg, average n=3, read-out: C0): 1120 ng/mL
- Cmax (male, Sprague-Dawley, plasma, iv, 1 mg/kg, intravenous injection 1 mg/kg, average n=3, read-out: Cmax): 914 ng/mL
- MRT last (male, Sprague-Dawley, plasma, iv, 1 mg/kg, intravenous injection 1 mg/kg, average n=3, read-out: MRT0-t): 1.89 h
- MRT inf (male, Sprague-Dawley, plasma, iv, 1 mg/kg, intravenous injection 1 mg/kg, average n=3, read-out: MRT0-∞): 2.33 h
- Tmax (male, Sprague-Dawley, plasma, iv, 1 mg/kg, intravenous injection 1 mg/kg, average n=3, read-out: Tmax): 0.033 h
- half-life (male, Sprague-Dawley, plasma, iv, 1 mg/kg, intravenous injection 1 mg/kg, average n=3, read-out: T½ (converted)): 3.01 h
- Vd (male, Sprague-Dawley, plasma, iv, 1 mg/kg, intravenous injection 1 mg/kg, average n=3, read-out: Vz): 5.66 L/kg
- AUC(0-inf) [2]: 861 ng·h/mL
- clearance [2]: 19.4 mL/min/kg
- AUC0-t (male, Sprague-Dawley, plasma, iv, 1 mg/kg, intravenous injection 1 mg/kg, individual rats #1-#3, read-out: AUC0-t): 822 ng·h/mL
- C0 (male, Sprague-Dawley, plasma, iv, 1 mg/kg, intravenous injection 1 mg/kg, individual rats #1-#3, read-out: C0): 1310 ng/mL
- Cmax (male, Sprague-Dawley, plasma, iv, 1 mg/kg, intravenous injection 1 mg/kg, individual rats #1-#3, read-out: Cmax): 1020 ng/mL
- MRT last (male, Sprague-Dawley, plasma, iv, 1 mg/kg, intravenous injection 1 mg/kg, individual rats #1-#3, read-out: MRT0-t): 2.08 h
- MRT inf (male, Sprague-Dawley, plasma, iv, 1 mg/kg, intravenous injection 1 mg/kg, individual rats #1-#3, read-out: MRT0-∞): 2.75 h
- Tmax (male, Sprague-Dawley, plasma, iv, 1 mg/kg, intravenous injection 1 mg/kg, individual rats #1-#3, read-out: Tmax): 0.033 h
- half-life (male, Sprague-Dawley, plasma, iv, 1 mg/kg, intravenous injection 1 mg/kg, individual rats #1-#3, read-out: T½ (converted)): 3.59 h
- Vd (male, Sprague-Dawley, plasma, iv, 1 mg/kg, intravenous injection 1 mg/kg, individual rats #1-#3, read-out: Vz): 6.01 L/kg
- bioavailability (male, Sprague-Dawley, plasma, oral, 10 mg/kg, oral administration (gavage) 10 mg/kg vs intravenous 1 mg/kg, average n=3, read-out: F (oral bioavailability)): 144%
- AUC0-t (male, Sprague-Dawley, plasma, po, 10 mg/kg, oral administration (gavage) 10 mg/kg, average n=3, read-out: AUC0-t): 10900 ng·h/mL
- Cmax (male, Sprague-Dawley, plasma, po, 10 mg/kg, oral administration (gavage) 10 mg/kg, average n=3, read-out: Cmax): 1480 ng/mL
- MRT last (male, Sprague-Dawley, plasma, po, 10 mg/kg, oral administration (gavage) 10 mg/kg, average n=3, read-out: MRT0-t): 6.62 h
- MRT inf (male, Sprague-Dawley, plasma, po, 10 mg/kg, oral administration (gavage) 10 mg/kg, average n=3, read-out: MRT0-∞): 6.81 h
- MRT last (male, Sprague-Dawley, plasma, po, 10 mg/kg, oral administration (gavage) 10 mg/kg, individual rats #1-#3, read-out: MRT0-t): 5.99 h
- MRT inf (male, Sprague-Dawley, plasma, po, 10 mg/kg, oral administration (gavage) 10 mg/kg, individual rats #1-#3, read-out: MRT0-∞): 6.19 h
- AUMC0-t [3]: 1413 hr*hr*ng/ml
- AUMC0-∞ [3]: 1805 hr*hr*ng/ml
- AUC0-t [4]: 680 ng·h/mL and 723 ng·h/mL
- AUC0-∞ [4]: 694 ng·h/mL and 742 ng·h/mL
- AUMC0-t [4]: 1708 hr*hr*ng/ml and 1207 hr*hr*ng/ml and 1326 hr*hr*ng/ml
- AUMC0-∞ [4]: 2368 hr*hr*ng/ml and 1418 hr*hr*ng/ml and 1630 hr*hr*ng/ml
- C0 [4]: 933 ng/mL and 1116 ng/mL
- Cl [4]: 24.03 mL/min/kg and 22.47 mL/min/kg
- Cmax [4]: 796 ng/mL and 925 ng/mL
- MRT0-t [4]: 1.77 h and 1.83 h
- MRT0-∞ [4]: 2.04 h and 2.20 h
- T½ [4]: 2.62 h and 2.84 h
- Vz [4]: 5.441 L/kg and 5.521 L/kg
- F (oral bioavailability) (oral administration (gavage) 10 mg/kg vs intravenous 1 mg/kg, individual rats #1-#3): 176.1% and 157.7% and 98.3%
- AUMC0-t [5]: 70219 hr*hr*ng/ml
- AUMC0-∞ [5]: 72777 hr*hr*ng/ml
- Cl [5]: 16.1 mL/min/kg
- Vz [5]: 4.204 L/kg
- AUC0-t [6]: 11999 ng·h/mL and 7435 ng·h/mL
- AUC0-∞ [6]: 12067 ng·h/mL and 7520 ng·h/mL
- AUMC0-t [6]: 80004 hr*hr*ng/ml and 72172 hr*hr*ng/ml and 58480 hr*hr*ng/ml
- AUMC0-∞ [6]: 83364 hr*hr*ng/ml and 74076 hr*hr*ng/ml and 60891 hr*hr*ng/ml
- Cl [6]: 12.4 mL/min/kg and 13.8 mL/min/kg and 22.17 mL/min/kg
- Cmax [6]: 2090 ng/mL and 1710 ng/mL and 645 ng/mL
- MRT0-t [6]: 6.01 h and 7.87 h
- MRT0-∞ [6]: 6.14 h and 8.10 h
- Tmax [6]: 1 h
- T½ [6]: 2.86 h and 3.01 h
- Vz [6]: 3.418 L/kg and 3.42 L/kg and 5.773 L/kg
